Source: PubChem BioAssay AID2060896 (Molecular Pharmacology Branch, DTP, NCI, 2025)

Test system: 941728-121-R-J1-PDC complex spheroid viability
Assay: Anticancer human tumor 941728-121-R-J1-PDC patient-derived lung adenocarcinoma cell line growth inhibition [RAS]
Details: for IC50: curve of first compound; for viability, T/C: stronger effect = lower value
Procedure, shortened: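 Tumour cells grown as complex spheroids with HUVEC endothelial cells and mesenchymal stem cells, treated with RAS pathway inhibitor combinations. Each agent spans half-log steps from near clinical Cmax, or 10 microM where Cmax is unknown.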

[1] = second compound 0.00316 µM, first compound 0.0316 µM
[2] = second compound 0.00316 µM, first compound 0.1 µM
[3] = second compound 0.00316 µM, first compound 0.316 µM
[4] = second compound 0.00316 µM, first compound 1 µM
[5] = second compound 0.01 µM, first compound 0.0316 µM
[6] = second compound 0.01 µM, first compound 0.1 µM
[7] = second compound 0.01 µM, first compound 0.316 µM
[8] = second compound 0.01 µM, first compound 1 µM
[9] = second compound 0.0316 µM, first compound 0.0316 µM
[10] = second compound 0.0316 µM, first compound 0.1 µM
[11] = second compound 0.0316 µM, first compound 0.316 µM
[12] = second compound 0.0316 µM, first compound 1 µM
[13] = second compound 0.1 µM, first compound 0.0316 µM
[14] = second compound 0.1 µM, first compound 0.1 µM
[15] = second compound 0.1 µM, first compound 0.316 µM
[16] = second compound 0.1 µM, first compound 1 µM
[17] = second compound 0.316 µM, first compound 0.0316 µM
[18] = second compound 0.316 µM, first compound 0.1 µM
[19] = second compound 0.316 µM, first compound 0.316 µM
[20] = second compound 0.316 µM, first compound 1 µM
[21] = second compound 1 µM, first compound 0.0316 µM
[22] = second compound 1 µM, first compound 0.1 µM
[23] = second compound 1 µM, first compound 0.316 µM
[24] = second compound 1 µM, first compound 1 µM
[25] = second compound 0.00316 µM, first compound 0.000949 µM
[26] = second compound 0.00316 µM, first compound 0.003 µM
[27] = second compound 0.00316 µM, first compound 0.00949 µM
[28] = second compound 0.00316 µM, first compound 0.03 µM
[29] = second compound 0.00316 µM, first compound 0.0949 µM
[30] = second compound 0.00316 µM, first compound 0.3 µM
[31] = second compound 0.01 µM, first compound 0.000949 µM
[32] = second compound 0.01 µM, first compound 0.003 µM
[33] = second compound 0.01 µM, first compound 0.00949 µM
[34] = second compound 0.01 µM, first compound 0.03 µM
[35] = second compound 0.01 µM, first compound 0.0949 µM
[36] = second compound 0.01 µM, first compound 0.3 µM
[37] = second compound 0.0316 µM, first compound 0.000949 µM
[38] = second compound 0.0316 µM, first compound 0.003 µM
[39] = second compound 0.0316 µM, first compound 0.00949 µM
[40] = second compound 0.0316 µM, first compound 0.03 µM
[41] = second compound 0.0316 µM, first compound 0.0949 µM
[42] = second compound 0.0316 µM, first compound 0.3 µM
[43] = second compound 0.1 µM, first compound 0.000949 µM
[44] = second compound 0.1 µM, first compound 0.003 µM
[45] = second compound 0.1 µM, first compound 0.00949 µM
[46] = second compound 0.1 µM, first compound 0.03 µM
[47] = second compound 0.1 µM, first compound 0.0949 µM
[48] = second compound 0.1 µM, first compound 0.3 µM
[49] = second compound 0.316 µM, first compound 0.000949 µM
[50] = second compound 0.316 µM, first compound 0.003 µM
[51] = second compound 0.316 µM, first compound 0.00949 µM
[52] = second compound 0.316 µM, first compound 0.03 µM
[53] = second compound 0.316 µM, first compound 0.0949 µM
[54] = second compound 0.316 µM, first compound 0.3 µM
[55] = second compound 1 µM, first compound 0.000949 µM
[56] = second compound 1 µM, first compound 0.003 µM
[57] = second compound 1 µM, first compound 0.00949 µM
[58] = second compound 1 µM, first compound 0.03 µM
[59] = second compound 1 µM, first compound 0.0949 µM
[60] = second compound 1 µM, first compound 0.3 µM
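Further: spheroids exposed to compounds for 7 days before readout.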
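Wherever viability, T/C is given: 100% = DMSO vehicle control viability.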

## CC(=O)OC12COC1CC(O)C1(C)C(=O)C(O)C3=C(C)C(OC(=O)C(O)C(NC(=O)OC(C)(C)C)c4ccccc4)CC(O)(C(OC(=O)c4ccccc4)C21)C3(C)C (stereo not drawn) + C=CC(=O)N1CCN(c2nc(OCC3CCCN3C)nc3c(F)c(-c4nc(N)cc(C)c4C(F)(F)F)c(Cl)cc23)C(C)C1
Second compound 0.00316 µM
  IC50: < 31.6 nM
Second compound 0.01 µM
  IC50: < 31.6 nM
Second compound 0.0316 µM
  IC50: < 31.6 nM
Second compound 0.1 µM
  IC50: < 31.6 nM
Second compound 0.316 µM
  IC50: < 31.6 nM
Second compound 1 µM
  IC50: < 31.6 nM
[1]
  viability, T/C: 15.8%
[2]
  viability, T/C: 13.3%
[3]
  viability, T/C: 13.2%
[4]
  viability, T/C: 12.3%
Second compound 0.00316 µM, first compound 3.16 µM
  viability, T/C: 13.6%
Second compound 0.00316 µM, first compound 10 µM
  viability, T/C: 20.4%
[5]
  viability, T/C: 15.8%
[6]
  viability, T/C: 10.3%
[7]
  viability, T/C: 12.7%
[8]
  viability, T/C: 12.2%
Second compound 0.01 µM, first compound 3.16 µM
  viability, T/C: 12.1%
Second compound 0.01 µM, first compound 10 µM
  viability, T/C: 12.1%
[9]
  viability, T/C: 14.4%
[10]
  viability, T/C: 14.1%
[11]
  viability, T/C: 11%
[12]
  viability, T/C: 12.8%
Second compound 0.0316 µM, first compound 3.16 µM
  viability, T/C: 13.1%
Second compound 0.0316 µM, first compound 10 µM
  viability, T/C: 12.2%
[13]
  viability, T/C: 14.1%
[14]
  viability, T/C: 15.6%
[15]
  viability, T/C: 12%
[16]
  viability, T/C: 13.8%
Second compound 0.1 µM, first compound 3.16 µM
  viability, T/C: 13.8%
Second compound 0.1 µM, first compound 10 µM
  viability, T/C: 12.6%
[17]
  viability, T/C: 13.5%
[18]
  viability, T/C: 13%
[19]
  viability, T/C: 14.1%
[20]
  viability, T/C: 13.8%
Second compound 0.316 µM, first compound 3.16 µM
  viability, T/C: 13.1%
Second compound 0.316 µM, first compound 10 µM
  viability, T/C: 16.2%
[21]
  viability, T/C: 14.7%
[22]
  viability, T/C: 13.5%
[23]
  viability, T/C: 12.6%
[24]
  viability, T/C: 14.6%
Second compound 1 µM, first compound 3.16 µM
  viability, T/C: 14%
Second compound 1 µM, first compound 10 µM
  viability, T/C: 14.5%

## CC1(C)CCC(Nc2ncc(C(F)(F)F)c(-c3c[nH]c4c(P(C)(C)=O)c(C#N)ccc34)n2)CN1 (stereo not drawn) + C=CC(=O)N1CCN(c2nc(OCC3CCCN3C)nc3c(F)c(-c4nc(N)cc(C)c4C(F)(F)F)c(Cl)cc23)C(C)C1
Second compound 0.00316 µM
  IC50: < 0.949 nM
Second compound 0.01 µM
  IC50: < 0.949 nM
Second compound 0.0316 µM
  IC50: < 0.949 nM
Second compound 0.1 µM
  IC50: < 0.949 nM
Second compound 0.316 µM
  IC50: < 0.949 nM
Second compound 1 µM
  IC50: < 0.949 nM
[25]
  viability, T/C: 17.1%
[26]
  viability, T/C: 18.1%
[27]
  viability, T/C: 19.7%
[28]
  viability, T/C: 19%
[29]
  viability, T/C: 20.5%
[30]
  viability, T/C: 20.9%
[31]
  viability, T/C: 18.9%
[32]
  viability, T/C: 16.2%
[33]
  viability, T/C: 17.9%
[34]
  viability, T/C: 17.8%
[35]
  viability, T/C: 17.9%
[36]
  viability, T/C: 16.8%
[37]
  viability, T/C: 14.8%
[38]
  viability, T/C: 16.8%
[39]
  viability, T/C: 17.8%
[40]
  viability, T/C: 17.6%
[41]
  viability, T/C: 17.7%
[42]
  viability, T/C: 17.7%
[43]
  viability, T/C: 15.4%
[44]
  viability, T/C: 16.9%
[45]
  viability, T/C: 17%
[46]
  viability, T/C: 17.2%
[47]
  viability, T/C: 17.8%
[48]
  viability, T/C: 19.1%
[49]
  viability, T/C: 15.3%
[50]
  viability, T/C: 15.8%
[51]
  viability, T/C: 15.8%
[52]
  viability, T/C: 17.7%
[53]
  viability, T/C: 19.3%
[54]
  viability, T/C: 18.1%
[55]
  viability, T/C: 16.6%
[56]
  viability, T/C: 16.6%
[57]
  viability, T/C: 18.8%
[58]
  viability, T/C: 19.3%
[59]
  viability, T/C: 18.6%
[60]
  viability, T/C: 21%

## CCc1c2c(nc3ccc(O)cc13)-c1cc3c(c(=O)n1C2)COC(=O)[C@]3(O)CC + C=CC(=O)N1CCN(c2nc(OCC3CCCN3C)nc3c(F)c(-c4nc(N)cc(C)c4C(F)(F)F)c(Cl)cc23)C(C)C1
Second compound 0.00316 µM
  IC50: < 0.949 nM
Second compound 0.01 µM
  IC50: < 0.949 nM
Second compound 0.0316 µM
  IC50: < 0.949 nM
Second compound 0.1 µM
  IC50: < 0.949 nM
Second compound 0.316 µM
  IC50: < 0.949 nM
Second compound 1 µM
  IC50: < 0.949 nM
[25]
  viability, T/C: 21.6%
[26]
  viability, T/C: 18.7%
[27]
  viability, T/C: 14.7%
[28]
  viability, T/C: 13.7%
[29]
  viability, T/C: 12.1%
[30]
  viability, T/C: 8.13%
[31]
  viability, T/C: 18.9%
[32]
  viability, T/C: 15.6%
[33]
  viability, T/C: 20.6%
[34]
  viability, T/C: 13.1%
[35]
  viability, T/C: 11.4%
[36]
  viability, T/C: 7.95%
[37]
  viability, T/C: 18.3%
[38]
  viability, T/C: 16.5%
[39]
  viability, T/C: 13.8%
[40]
  viability, T/C: 15.1%
[41]
  viability, T/C: 11.7%
[42]
  viability, T/C: 7.67%
[43]
  viability, T/C: 16.3%
[44]
  viability, T/C: 17%
[45]
  viability, T/C: 15.1%
[46]
  viability, T/C: 12.6%
[47]
  viability, T/C: 12.4%
[48]
  viability, T/C: 8.11%
[49]
  viability, T/C: 18.3%
[50]
  viability, T/C: 15.8%
[51]
  viability, T/C: 13.7%
[52]
  viability, T/C: 12.2%
[53]
  viability, T/C: 11.7%
[54]
  viability, T/C: 6.82%
[55]
  viability, T/C: 17.1%
[56]
  viability, T/C: 15.4%
[57]
  viability, T/C: 13.8%
[58]
  viability, T/C: 13.7%
[59]
  viability, T/C: 14.8%
[60]
  viability, T/C: 7.83%

## Nc1ccn(C2OC(CO)C(O)C2(F)F)c(=O)n1 (stereo not drawn) + C=CC(=O)N1CCN(c2nc(OCC3CCCN3C)nc3c(F)c(-c4nc(N)cc(C)c4C(F)(F)F)c(Cl)cc23)C(C)C1
Second compound 0.00316 µM
  IC50: < 3.16 nM
Second compound 0.01 µM
  IC50: < 3.16 nM
Second compound 0.0316 µM
  IC50: < 3.16 nM
Second compound 0.1 µM
  IC50: < 3.16 nM
Second compound 0.316 µM
  IC50: < 3.16 nM
Second compound 1 µM
  IC50: < 3.16 nM
Second compound 0.00316 µM, first compound 0.00316 µM
  viability, T/C: 17.8%
Second compound 0.00316 µM, first compound 0.01 µM
  viability, T/C: 14.8%
[1]
  viability, T/C: 15.2%
[2]
  viability, T/C: 14%
[3]
  viability, T/C: 15.9%
[4]
  viability, T/C: 15.6%
Second compound 0.01 µM, first compound 0.00316 µM
  viability, T/C: 17.7%
Second compound 0.01 µM, first compound 0.01 µM
  viability, T/C: 14.7%
[5]
  viability, T/C: 16.3%
[6]
  viability, T/C: 16.2%
[7]
  viability, T/C: 14.5%
[8]
  viability, T/C: 13.3%
Second compound 0.0316 µM, first compound 0.00316 µM
  viability, T/C: 14.9%
Second compound 0.0316 µM, first compound 0.01 µM
  viability, T/C: 15.6%
[9]
  viability, T/C: 15.7%
[10]
  viability, T/C: 13.3%
[11]
  viability, T/C: 14.9%
[12]
  viability, T/C: 15.2%
Second compound 0.1 µM, first compound 0.00316 µM
  viability, T/C: 16.9%
Second compound 0.1 µM, first compound 0.01 µM
  viability, T/C: 13.9%
[13]
  viability, T/C: 15.4%
[14]
  viability, T/C: 14.1%
[15]
  viability, T/C: 12.1%
[16]
  viability, T/C: 12.6%
Second compound 0.316 µM, first compound 0.00316 µM
  viability, T/C: 16.4%
Second compound 0.316 µM, first compound 0.01 µM
  viability, T/C: 16.1%
[17]
  viability, T/C: 15.9%
[18]
  viability, T/C: 14.3%
[19]
  viability, T/C: 15.8%
[20]
  viability, T/C: 13.8%
Second compound 1 µM, first compound 0.00316 µM
  viability, T/C: 18.9%
Second compound 1 µM, first compound 0.01 µM
  viability, T/C: 15.8%
[21]
  viability, T/C: 15.8%
[22]
  viability, T/C: 16.6%
[23]
  viability, T/C: 14%
[24]
  viability, T/C: 12.6%
